{"source": "patent US12123028B2", "about": "“Viral inactivation methods for continuous manufacturing of antibodies” (Bayer HealthCare LLC, priority 2018, dated 2024)", "key": {"aquatic environment": {"system": "aquatic environment", "conditions": "cited from earlier work"}, "X-MuLV": {"system": "X-MuLV", "assay": "Dual X-MuLV inactivation by low pH and detergent in mAb protein A eluate, remaining infectivity by TCID50 assay on PG-4 cells", "format": "cell-based, Xenotropic Murine Leukemia Virus", "conditions": "for LRF ± 95% CL: 16° C.", "experimental": "[…] The pH adjusted eluates were then filtered by a 0.22 um filter. Various volumes of 5% detergent stock solution were then added to the filtered protein A eluates. The low pH protein A eluates containing Mega-10, Tween 80 or Tween 20 were pre-incubated at a 16° C. water bath prior to spiking with X-MuLV at a 1:20 ratio. After a thorough mixing, an aliquot of sample was removed immediately and neutralized with 1 M Tris buffer to stop low pH viral inactivation, then immediately quenched with diluent at 1:12 for Mega-10 or at 1:100 for Tween 20 and Tween 80 to stop viral inactivation by the detergent. The collected sample was designated as a time-zero reference. The remaining spiked eluate was returned to the water bath and the samples were collected at indicated times to evaluate the viral inactivation kinetics. The remaining X-MuLV infectivity in the samples post-inactivation treatment was determined by a TCID50 assay that is an endpoint dilution assay to quantify the amount of virus required to produce a cytopathic effect in 50% of inoculated tissue culture cells. Virus titers were estimated using the Spearman-Karber method and reported as TCID50/mL with a calculated 95% confidence interval (CI). Briefly, a sufficient number of 96-well plates with PG-4 (feline S^+L^−, ATCC#CRL-2032) cells were prepared the day before starting the viral inactivation experiments and incubated overnight in a 37° C. humidified CO2 incubator. A set of ten 3.2 fold dilution of the diluted positive control (1:100) and viral inactivated samples were prepared in a dilution block. Each set of the 11 serial dilutions of the samples were inoculated correspondingly onto wells (100 μL per well) of the first 11 columns in a 96-well plate that had been pre-seeded with PG-4 cells. The 12th column in the same plate was inoculated with the corresponding diluent to serve as non-virus negative control. The positive control was prepared by spiking the filtered neutralized protein A eluate with X-MuLV at a 1:20 ratio. The inoculated plates were then incubated in a 37° C. humidified CO2 incubator for approximate 2 hours. A volume of 100 uL of 2× assay medium (92% McCoy's 5A medium, 4% FBS, 2% Penicillin/Streptomycin, 2% L-Glutamine) was added to each well of the plates at the end of incubation. The plates were then returned to the same incubator, and continued incubation for 6 days. Each well of the plates were scored under a microscope for the presence of cytopathic effect (CPE) and the results were recorded in a scoring sheet. Virus titers were then estimated using the Spearman-Karber method and reported as TCID50/mL with a calculated 95% confidence interval (CI)."}}, "note": "“Also recorded” adds a separate entry of the source.", "data": [{"smiles": "CCCCCCCCCC(=O)N(C)C[C@H](O)[C@@H](O)[C@H](O)[C@H](O)CO", "note": "[Mega-10, N-Methylglucamide]", "values": [{"measurement": "toxicity to the aquatic environment", "setting": "aquatic environment", "result": "without toxicity to the aquatic environment; also recorded: no toxicity to the aquatic environment"}, {"measurement": "LRF ± 95% CL", "setting": "X-MuLV; dual treatment pH 3.91 + 0.10% Mega 10, mAb1 protein A eluate, 0 minutes", "result": "3.74 ± 0.33"}, {"measurement": "LRF ± 95% CL", "setting": "X-MuLV; dual treatment pH 3.91 + 0.10% Mega 10, mAb1 protein A eluate, 2.5 minutes", "result": "≥ 5.40±0.21"}, {"measurement": "LRF ± 95% CL", "setting": "X-MuLV; dual treatment pH 3.91 + 0.10% Mega 10, mAb1 protein A eluate, 2.5 minutes, listed as Mega 10", "result": "≥5.40 ± 0.21"}, {"measurement": "LRF ± 95% CL", "setting": "X-MuLV; dual treatment pH 3.91 + 0.10% Mega 10, mAb1 protein A eluate, 5 minutes", "result": "≥5.40 ± 0.21"}, {"measurement": "LRF ± 95% CL", "setting": "X-MuLV; dual treatment pH 3.91 + 0.10% Mega 10, mAb1 protein A eluate, 10 minutes", "result": "≥5.40 ± 0.21"}, {"measurement": "LRF ± 95% CL", "setting": "X-MuLV; dual treatment pH 3.91 + 0.10% Mega 10, mAb1 protein A eluate, 30 minutes", "result": "≥5.40 ± 0.21"}, {"measurement": "LRF ± 95% CL", "setting": "X-MuLV; dual treatment pH 4.05 + 0.15% Mega 10, mAb2 protein A eluate, 0 minutes", "result": "1.62 ± 0.27"}, {"measurement": "LRF ± 95% CL", "setting": "X-MuLV; dual treatment pH 4.05 + 0.15% Mega 10, mAb2 protein A eluate, 2.5 minutes", "result": "3.96 ± 0.31"}, {"measurement": "LRF ± 95% CL", "setting": "X-MuLV; dual treatment pH 4.05 + 0.15% Mega 10, mAb2 protein A eluate, 5 minutes", "result": "5.50±0.83"}, {"measurement": "LRF ± 95% CL", "setting": "X-MuLV; dual treatment pH 4.05 + 0.15% Mega 10, mAb2 protein A eluate, 5 minutes, listed as Mega 10", "result": "5.50 ± 0.83"}, {"measurement": "LRF ± 95% CL", "setting": "X-MuLV; dual treatment pH 4.05 + 0.15% Mega 10, mAb2 protein A eluate, 10 minutes", "result": "≥5.81 ± 0.18^"}, {"measurement": "LRF ± 95% CL", "setting": "X-MuLV; dual treatment pH 4.05 + 0.15% Mega 10, mAb2 protein A eluate, 30 minutes", "result": "≥5.81 ± 0.18^"}, {"measurement": "time to inactivate X-MuLV to the level below the detection limit", "setting": "X-MuLV; dual treatment: mAb1 protein A eluate pH 3.91 with 0.1% Mega-10, 16° C. (240 minutes by pH 3.91 alone at 18° C.)", "result": 2.5, "unit": "min"}, {"measurement": "time needed for inactivating X-MuLV to the level below the detection limit", "setting": "X-MuLV; dual treatment: mAb2 protein A eluate pH 4.05 with 0.15% Mega-10, 16° C. (120 minutes by pH 4.0 alone at 18° C.)", "result": 10, "unit": "min"}]}]}
